The compounds below were run against Factor D (Homo sapiens (Human), UniProt P00746) (assay: Factor D esterolytic assay (Z-Lys-SBzl substrate, DTNB, 405 nm)). Conditions: Z-Lys-SBzl 1.29 mM, pH 7.5, 10% DMSO, tested a minimum of three times, read-out: Measured Ki (IC50) Value for Compounds: IC50.
Type: biochemical
Summary of the method: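 Thioester hydrolysis (Z-Lys-SBzl, 1.29 mM) by human Factor D ([…]) detected through DTNB color at 405 nm over 600 sec, minus 690 nm background. Buffer: 100 mM HEPES pH 7.5, 500 mM NaCl, 10% DMSO; optional room-temperature preincubation before substrate. IC50 derived from percent rate inhibition; at least three runs.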

Sequence of Factor D (P00746 26-253): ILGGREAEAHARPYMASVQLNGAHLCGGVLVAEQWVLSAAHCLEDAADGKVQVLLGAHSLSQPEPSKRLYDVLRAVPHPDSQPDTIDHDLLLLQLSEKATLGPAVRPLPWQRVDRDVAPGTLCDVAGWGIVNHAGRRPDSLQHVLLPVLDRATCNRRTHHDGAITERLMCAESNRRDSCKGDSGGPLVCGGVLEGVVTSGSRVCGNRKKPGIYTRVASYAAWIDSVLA

With `NCc1cccc(-c2cc(COc3ccccc3CC(=O)O)cc3cc(CNC(=O)c4ccc(F)cc4F)oc23)c1` [Compound 297c, 2-(2-((7-(3-(aminomethyl)phenyl)-2-((2,4-difluorobenzamido)methyl)benzofuran-5-yl)methoxy)phenyl)acetic acid] as the compound, how does the IC50 read?
Its IC50 is < 1000 nM.

`NCc1cc(-c2cc(COc3ccccc3CC(=O)O)cc3c2ccn3C(F)(F)F)ccn1` [Compound 532d, 2-(2-((4-(2-(aminomethyl)pyridin-4-yl)-1-(trifluoromethyl)-1H-indol-6-yl)methoxy)phenyl)acetic acid] was tested. Which IC50 did it give?
The IC50 was < 1000 nM.

Which IC50 does the source give for `NCc1cccc(-c2cc(COc3ccccc3CC(=O)O)cc3cc(CNC(=O)Cc4ccccc4)oc23)c1` [Compound 296c, 2-(2-((7-(3-(aminomethyl)phenyl)-2-((2-phenylacetamido)methyl)benzofuran-5-yl)methoxy)phenyl)acetic acid] here?
Its IC50 is < 1000 nM.

With `Nc1cccc(-c2cc(COc3ccccc3CC(=O)O)cc3ccoc23)c1` [Compound 184c, 2-(2-((7-(3-aminophenyl)benzofuran-5-yl)methoxy)phenyl)acetic acid] as the compound, how does the IC50 read?
The IC50 was 1000 to 10000 nM.

For `COCc1cc2cc(COc3ccccc3CC(=O)O)cc(-c3cccc(CN)c3F)c2o1` [Compound 99b, 2-(2-((7-(3-(aminomethyl)-2-fluorophenyl)-2-(methoxymethyl)benzofuran-5-yl)methoxy)phenyl)acetic acid], which IC50 is on record?
Its IC50 is < 1000 nM.

For `COCc1cc2cc(COc3cc(F)ccc3CC(=O)O)cc(-c3ccnc(CN)c3F)c2o1` [Compound 514d, 2-(2-((7-(2-(aminomethyl)-3-fluoropyridin-4-yl)-2-(methoxymethyl)benzofuran-5-yl)methoxy)-4-fluorophenyl)acetic acid], which IC50 is on record?
Its IC50 is < 1000 nM.

With `CC(=O)Nc1ccc(CC(=O)O)c(OCc2cc(-c3cccc(CN)c3F)c3occc3c2)c1` [Compound 432c, 2-(4-acetamido-2-((7-(3-(aminomethyl)-2-fluorophenyl)benzofuran-5-yl)methoxy)phenyl)acetic acid] as the compound, how does the IC50 read?
The IC50 was < 1000 nM.

How did the IC50 turn out when `NCc1cccc(-c2cc(C(=O)Nc3ccccc3CC(=O)O)cc3cc(C4CC4)oc23)c1` [Compound 62c, 2-(2-(7-(3-(aminomethyl)phenyl)-2-cyclopropylbenzofuran-5-carboxamido)phenyl)acetic acid] was run?
Its IC50 is < 1000 nM.

For `NC(=O)c1ccc(CC(=O)O)c(OCc2cc(-c3cccc(C(N)CF)c3)c3occc3c2)c1` (single isomer, unassigned; (+)) [Compound 436c, (+)-2-(2-((7-(3-(1-amino-2-fluoroethyl)phenyl)benzofuran-5-yl)methoxy)-4-carbamoylphenyl)acetic acid], which IC50 is on record?
The IC50 was < 1000 nM.

`COc1ccc(CC(=O)O)c(OCc2cc(-c3ccnc(CN)c3)c3occc3c2)c1` [Compound 482b, 2-(2-((7-(2-(aminomethyl)pyridin-4-yl)benzofuran-5-yl)methoxy)-4-methoxyphenyl)acetic acid] was tested. Which IC50 did it give?
Its IC50 is < 1000 nM.

For `Cc1ccc(CC(=O)O)c(OCc2cc(-c3ccnc(CN)c3F)c3ccn(C(C)C)c3c2)c1` [Compound 355c, 2-(2-((4-(2-(aminomethyl)-3-fluoropyridin-4-yl)-1-isopropyl-1H-indol-6-yl)methoxy)-4-methylphenyl)acetic acid], which IC50 is on record?
The IC50 was < 1000 nM.

With `CC(O)c1cc2cc(COc3ccccc3CC(=O)O)cc(-c3cccc(CN)c3)c2o1` (centres unmarked) [Compound 98e, 2-(2-((7-(3-(aminomethyl)phenyl)-2-(1-hydroxyethyl)benzofuran-5-yl)methoxy)phenyl)acetic acid] as the compound, how does the IC50 read?
The IC50 was < 1000 nM.

With `NCc1cccc(-c2cc(COc3ccccc3CC(=O)O)cc3cc(CNCC4CCCNC4)oc23)c1` (centres unmarked) [Compound 194d, 2-(2-((7-(3-(aminomethyl)phenyl)-2-(((piperidin-3-ylmethyl)amino)methyl)benzofuran-5-yl)methoxy)phenyl)acetic acid] as the compound, how does the IC50 read?
The IC50 was < 1000 nM.

With `NCc1cccc(-c2cc(COc3ccccc3CC(=O)O)cc3cccnc23)c1` [Compound 285e, 2-(2-((8-(3-(aminomethyl)phenyl)quinolin-6-yl)methoxy)phenyl)acetic acid] as the compound, how does the IC50 read?
Its IC50 is < 1000 nM.

`NCc1cccc(-c2cc(C(=O)Nc3ccccc3CC(=O)O)cc3[nH]ncc23)c1` [Compound 7d, 2-(2-(4-(3-(aminomethyl)phenyl)-1H-indazole-6-carboxamido)phenyl)acetic acid] was tested. Which IC50 did it give?
The IC50 was < 1000 nM.

How did the IC50 turn out when `Cc1ccc(CC(=O)O)c(OCc2cc(-c3ccnc(CN)c3F)c3occc3c2)c1` [Compound 272e, 2-(2-((7-(2-(aminomethyl)-3-fluoropyridin-4-yl)benzofuran-5-yl)methoxy)-4-methylphenyl)acetic acid] was run?
The IC50 was < 1000 nM.

With `NCc1cccc(-c2cc(COc3cc(C(F)(F)F)ccc3CC(=O)O)cc3ccoc23)c1` [Compound 288f, 2-(2-((7-(3-(aminomethyl)phenyl)benzofuran-5-yl)methoxy)-4-(trifluoromethyl)phenyl)acetic acid] as the compound, how does the IC50 read?
The IC50 was < 1000 nM.

Which IC50 does the source give for `N[C@H](CO)c1cc(-c2cc(COc3ccccc3CC(=O)O)cc3ccoc23)ccn1` [Compound 77c, (S)-2-(2-((7-(2-(1-amino-2-hydroxyethyl)pyridin-4-yl)benzofuran-5-yl)methoxy)phenyl)acetic acid] here?
The IC50 was < 1000 nM.

`Cn1ccc2c(-c3cccc(CN)c3F)cc(COc3ccccc3CC(=O)O)cc21` [Compound 97b, 2-(2-((4-(3-(aminomethyl)-2-fluorophenyl)-1-methyl-1H-indol-6-yl)methoxy)phenyl)acetic acid] was tested. Which IC50 did it give?
Its IC50 is < 1000 nM.

How did the IC50 turn out when `COc1ccc(CC(=O)O)c(OCc2cc(-c3cccc(CN)c3)c3occ(C(F)(F)F)c3c2)c1` [Compound 488c, 2-(2-((7-(3-(aminomethyl)phenyl)-3-(trifluoromethyl)benzofuran-5-yl)methoxy)-4-methoxyphenyl)acetic acid] was run?
The IC50 was < 1000 nM.

For `NCc1cccc(-c2cc(COc3ccccc3CC(=O)O)cc3c2ccn3S(=O)(=O)C2CC2)c1F` [Compound 213b, 2-(2-((4-(3-(aminomethyl)-2-fluorophenyl)-1-(cyclopropylsulfonyl)-1H-indol-6-yl)methoxy)phenyl)acetic acid], which IC50 is on record?
The IC50 was < 1000 nM.

Which IC50 does the source give for `CC(C)S(=O)(=O)n1ccc2c(-c3ccnc(CN)c3)cc(COc3ccccc3CC(=O)O)cc21` [Compound 233c, 2-(2-((4-(2-(aminomethyl)pyridin-4-yl)-1-(isopropylsulfonyl)-1H-indol-6-yl)methoxy)phenyl)acetic acid] here?
Its IC50 is < 1000 nM.

How did the IC50 turn out when `COCc1cc2cc(COc3cc(C)ccc3CC(=O)O)cc(-c3ccnc(CN)c3F)c2o1` [Compound 453d, 2-(2-((7-(2-(aminomethyl)-3-fluoropyridin-4-yl)-2-(methoxymethyl)benzofuran-5-yl)methoxy)-4-methylphenyl)acetic acid] was run?
The IC50 was < 1000 nM.

For `NCc1cccc(-c2cc(COc3ccccc3CC(=O)O)cc3c(C(F)(F)F)coc23)c1F` [Compound 173b, 2-(2-((7-(3-(aminomethyl)-2-fluorophenyl)-3-(trifluoromethyl)benzofuran-5-yl)methoxy)phenyl)acetic acid], which IC50 is on record?
The IC50 was < 1000 nM.

`NCc1cccc(-c2cc(COc3ccccc3CC(=O)O)cc3cc(C(=O)NCc4ccccc4)oc23)c1` [Compound 290c, 2-(2-((7-(3-(aminomethyl)phenyl)-2-(benzylcarbamoyl)benzofuran-5-yl)methoxy)phenyl)acetic acid] was tested. Which IC50 did it give?
Its IC50 is < 1000 nM.

For `NC(CF)c1cc(-c2cc(COc3ccccc3CC(=O)O)cc3ccoc23)ccn1` (single isomer, unassigned; (+)) [Compound 327d, (+)-2-(2-((7-(2-(1-amino-2-fluoroethyl)pyridin-4-yl)benzofuran-5-yl)methoxy)phenyl)acetic acid], which IC50 is on record?
Its IC50 is < 1000 nM.

How did the IC50 turn out when `NCc1cc(F)cc(-c2cc(C(=O)Nc3ccccc3CC(=O)O)cc3[nH]ccc23)c1` [Compound 19c, 2-(2-(4-(3-(aminomethyl)-5-fluorophenyl)-1H-indole-6-carboxamido)phenyl)acetic acid] was run?
The IC50 was < 1000 nM.

For `COCc1cc2cc(COc3cc(F)ccc3CC(=O)O)cc(-c3cccc(CN)c3F)c2o1` [Compound 478b, 2-(2-((7-(3-(aminomethyl)-2-fluorophenyl)-2-(methoxymethyl)benzofuran-5-yl)methoxy)-4-fluorophenyl)acetic acid], which IC50 is on record?
The IC50 was < 1000 nM.

`NCc1cccc(-c2c(F)c(COc3ccccc3CC(=O)O)cc3ccoc23)c1` [Compound 473e, 2-(2-((7-(3-(aminomethyl)phenyl)-6-fluorobenzofuran-5-yl)methoxy)phenyl)acetic acid] was tested. Which IC50 did it give?
Its IC50 is < 1000 nM.

How did the IC50 turn out when `CN(Cc1ccccc1CC(=O)O)c1cc(-c2cccc(CN)c2)c2occc2c1` [Compound 378d, 2-(2-(((7-(3-(aminomethyl)phenyl)benzofuran-5-yl)(methyl)amino)methyl)phenyl)acetic acid] was run?
Its IC50 is < 1000 nM.

With `Nc1c[nH]c2c(-c3cc(COc4ccccc4CC(=O)O)cc4ccoc34)cccc12` [Compound 341e, 2-(2-((7-(3-amino-1H-indol-7-yl)benzofuran-5-yl)methoxy)phenyl)acetic acid] as the compound, how does the IC50 read?
Its IC50 is < 1000 nM.

With `COCc1cc2cc(COc3cc(OC)ccc3CC(=O)O)cc(-c3cccc(CN)c3)c2o1` [Compound 466c, 2-(2-((7-(3-(aminomethyl)phenyl)-2-(methoxymethyl)benzofuran-5-yl)methoxy)-4-methoxyphenyl)acetic acid] as the compound, how does the IC50 read?
Its IC50 is < 1000 nM.

Which IC50 does the source give for `NCc1cccc(-c2nc(C(=O)Nc3ccccc3CC(=O)O)cc3ccncc23)c1` [Compound 35f, 2-(2-(1-(3-(aminomethyl)phenyl)-2,7-naphthyridine-3-carboxamido)phenyl)acetic acid] here?
Its IC50 is 1000 to 10000 nM.

For `COc1ccc(CC(=O)O)c(OCc2cc(-c3cccc(CN)c3)c3occc3c2)c1` [Compound 303g, 2-(2-((7-(3-(aminomethyl)phenyl)benzofuran-5-yl)methoxy)-4-methoxyphenyl)acetic acid], which IC50 is on record?
Its IC50 is < 1000 nM.

For `Cc1c(CN)cccc1-c1cc(COc2ccccc2CC(=O)O)cc2ccoc12` [Compound 68c, 2-(2-((7-(3-(aminomethyl)-2-methylphenyl)benzofuran-5-yl)methoxy)phenyl)acetic acid], which IC50 is on record?
The IC50 was < 1000 nM.

Reference: patent US11370774B2, “Substituted benzofuran, benzopyrrole, benzothiophene, and structurally related complement inhibitors” (BioCryst Pharmaceuticals, Inc., priority 2018, dated 2022)
